Legend:
subjects with TRD = experiment: Example 1 Part B: safety and tolerability of a single dose in subjects with TRD; conditions: single oral 2400 mg
From the text: In Part B of the study, approximately 32 subjects were randomly assigned to double-blind treatment in one cohort. […] The single-blind placebo lead-in treatment was intended to facilitate screening out placebo responders.
(§1) The study included standard safety and tolerability assessments—e.g., physical, neurological, and psychiatric examinations, vital signs, oral temperature, respiration rate, weight, 12-lead paper electrocardiograms (pECGs), dECGs, clinical laboratory tests, monitoring of adverse events (AEs) and concomitant medications, and, in Part A of the study, cardiovascular (CV) telemetry and safety EEGs.
Placebo was administered orally as a solution.

healthy volunteers = experiment: Example 1 Part A: safety and tolerability of single ascending doses in healthy volunteers
From the text: Up to approximately 48 healthy volunteers were randomly assigned to double-blind treatment. […] The in-house period was 6 days/5 nights. The duration of each subject's participation was up to 39 days, including screen/washout and follow-up.
as §1
Subjects were required to abstain from eating or drinking for two hours prior to and after dosing. • Subjects randomized to receive placebo (purified water and Flavor Sweet-SF™): Single dose placebo was administered orally as a solution on Day 1. Subjects were required to abstain from eating or drinking for two hours prior to and after dosing.
An AE is any unfavorable and unintended sign (including an abnormal laboratory finding), symptom, or disease temporally associated with the use of a medical treatment or procedure, whether or not considered related to the medical treatment or procedure. […] An AE term is a unique representation of a specific event used for medical documentation and scientific analyses.
A TEAE is an AE that either commenced following initiation of study treatment or was present prior to study treatment but increased in frequency or severity following initiation of study treatment.

For `CC(C)(C[C@H](N)C(=O)O)C(F)F` [Compound A, (S)-2-amino-5,5-difluoro-4,4-dimethylpentanoic acid], the “Vitals, labs, and ECG findings” value (subjects with TRD) was “unremarkable”, the safety and tolerability (subjects with TRD) was “well tolerated, with no serious adverse events, and no discontinuations due to adverse events” and the “severity of adverse events” value (subjects with TRD) was “mild-moderate”. The Deaths (subjects with TRD; n = 16) was 0, the “Discontinuations due to AE” value (subjects with TRD; n = 16) was 0 and the “Serious AEs” value (subjects with TRD; n = 16) was 0. The “Subjects with at least 1 AE” value (subjects with TRD; n = 16) was 11 (68.8), the “TEAE: Back pain” value (subjects with TRD; n = 16) was 1 and the “TEAE: Dizziness” value (subjects with TRD; n = 16) was 2. For the same compound, the “TEAE: Dizziness postural” value (subjects with TRD; n = 16) was 1, the “TEAE: Dry mouth” value (subjects with TRD; n = 16) was 1 and the “TEAE: Dyspepsia” value (subjects with TRD; n = 16) was 1. The “TEAE: Feeling abnormal” value (subjects with TRD; n = 16) was 1, the “TEAE: Flatulence” value (subjects with TRD; n = 16) was 1 and the “TEAE: Frequent bowel movements” value (subjects with TRD; n = 16) was 1. For the same compound, the “TEAE: Headache” value (subjects with TRD; n = 16) was 2, the “TEAE: Hypertension” value (subjects with TRD; n = 16) was 1 and the “TEAE: Hyperthyroidism” value (subjects with TRD; n = 16) was 1. For the same compound, the “TEAE: Myalgia” value (subjects with TRD; n = 16) was 1, the “TEAE: Nausea” value (subjects with TRD; n = 16) was 1 and the “TEAE: Nipple pain” value (subjects with TRD; n = 16) was 1. For the same compound, the “TEAE: Orthostatic hypotension” value (subjects with TRD; n = 16) was 1, the “TEAE: Sensory disturbance” value (subjects with TRD; n = 16) was 1 and the “TEAE: Skin abrasion” value (subjects with TRD; n = 16) was 1. For the same compound, the “TEAE: Somnolence” value (subjects with TRD; n = 16) was 4, the “TEAE: T-wave inversion” value (subjects with TRD; n = 16) was 1 and the “Total number of TEAEs” value (subjects with TRD; n = 16) was 24. The “BPRS+ and CADSS scores” value (subjects with TRD; vs placebo) was “comparable as between the treatment groups”, the “Number of subjects with ≥1 TEAE” value (healthy volunteers; all doses Total, N = 36) was 13 (36.1) n (%) and the “TEAE: Abdominal pain” value (healthy volunteers; all doses Total, N = 36) was 1 n (%). The “TEAE: Abdominal pain lower” value (healthy volunteers; all doses Total, N = 36) was 1 n (%), the “TEAE: Blood creatine phosphokinase increased” value (healthy volunteers; all doses Total, N = 36) was 1 n (%) and the “TEAE: Dermatitis contact” value (healthy volunteers; all doses Total, N = 36) was 3 n (%). For the same compound, the “TEAE: Diarrhea” value (healthy volunteers; all doses Total, N = 36) was 1 n (%), the “TEAE: Dizziness” value (healthy volunteers; all doses Total, N = 36) was 4 n (%) and the “TEAE: Dry mouth” value (healthy volunteers; all doses Total, N = 36) was 1 n (%). For the same compound, the “TEAE: Headache” value (healthy volunteers; all doses Total, N = 36) was 2 n (%), the “TEAE: Hot flush” value (healthy volunteers; all doses Total, N = 36) was 1 n (%) and the “TEAE: Lipase increased” value (healthy volunteers; all doses Total, N = 36) was 1 n (%). The “TEAE: Nausea” value (healthy volunteers; all doses Total, N = 36) was 3 n (%), the “TEAE: Presyncope” value (healthy volunteers; all doses Total, N = 36) was 1 n (%) and the “TEAE: Somnolence” value (healthy volunteers; all doses Total, N = 36) was 1 n (%). The “TEAE: Vomiting” value (healthy volunteers; all doses Total, N = 36) was 1 n (%), the “Total number of TEAEs” value (healthy volunteers; all doses Total, N = 36) was 22 n (%) and the “Number of subjects with ≥1 TEAE” value (healthy volunteers; single oral 150 mg, N = 6) was 2 (33.3) n (%). The “TEAE: Abdominal pain lower” value (healthy volunteers; single oral 150 mg, N = 6) was 1 n (%), the “TEAE: Dizziness” value (healthy volunteers; single oral 150 mg, N = 6) was 1 n (%) and the “Total number of TEAEs” value (healthy volunteers; single oral 150 mg, N = 6) was 3 n (%). The “Number of subjects with ≥1 TEAE” value (healthy volunteers; single oral 300 mg, N = 6) was 2 (33.3) n (%), the “TEAE: Blood creatine phosphokinase increased” value (healthy volunteers; single oral 300 mg, N = 6) was 1 n (%) and the “TEAE: Lipase increased” value (healthy volunteers; single oral 300 mg, N = 6) was 1 n (%). The “Total number of TEAEs” value (healthy volunteers; single oral 300 mg, N = 6) was 2 n (%), the “Number of subjects with ≥1 TEAE” value (healthy volunteers; single oral 600 mg, N = 6) was 1 (16.7) n (%) and the “TEAE: Dizziness” value (healthy volunteers; single oral 600 mg, N = 6) was 1 n (%). For the same compound, the “TEAE: Presyncope” value (healthy volunteers; single oral 600 mg, N = 6) was 1 n (%), the “Total number of TEAEs” value (healthy volunteers; single oral 600 mg, N = 6) was 1 n (%) and the “Number of subjects with ≥1 TEAE” value (healthy volunteers; single oral 1000 mg, N = 6) was 1 (16.7) n (%). The “TEAE: Dizziness” value (healthy volunteers; single oral 1000 mg, N = 6) was 1 n (%), the “Total number of TEAEs” value (healthy volunteers; single oral 1000 mg, N = 6) was 1 n (%) and the “Number of subjects with ≥1 TEAE” value (healthy volunteers; single oral 1600 mg, N = 6) was 4 (66.7) n (%). The “TEAE: Abdominal pain” value (healthy volunteers; single oral 1600 mg, N = 6) was 1 n (%), the “TEAE: Dermatitis contact” value (healthy volunteers; single oral 1600 mg, N = 6) was 2 n (%) and the “TEAE: Diarrhea” value (healthy volunteers; single oral 1600 mg, N = 6) was 1 n (%). For the same compound, the “TEAE: Dizziness” value (healthy volunteers; single oral 1600 mg, N = 6) was 2 n (%), the “TEAE: Dry mouth” value (healthy volunteers; single oral 1600 mg, N = 6) was 1 n (%) and the “TEAE: Headache” value (healthy volunteers; single oral 1600 mg, N = 6) was 1 n (%). For the same compound, the “TEAE: Nausea” value (healthy volunteers; single oral 1600 mg, N = 6) was 1 n (%), the “TEAE: Somnolence” value (healthy volunteers; single oral 1600 mg, N = 6) was 1 n (%) and the “Total number of TEAEs” value (healthy volunteers; single oral 1600 mg, N = 6) was 10 n (%). For the same compound, the “Number of subjects with ≥1 TEAE” value (healthy volunteers; single oral 2400 mg, N = 6) was 3 (50.0) n (%), the “TEAE: Dermatitis contact” value (healthy volunteers; single oral 2400 mg, N = 6) was 1 n (%) and the “TEAE: Headache” value (healthy volunteers; single oral 2400 mg, N = 6) was 1 n (%). The “TEAE: Nausea” value (healthy volunteers; single oral 2400 mg, N = 6) was 2 n (%), the “TEAE: Vomiting” value (healthy volunteers; single oral 2400 mg, N = 6) was 1 n (%) and the “Total number of TEAEs” value (healthy volunteers; single oral 2400 mg, N = 6) was 5 n (%). For the same compound, the “Vitals, labs, and ECG findings” value (healthy volunteers; single oral doses 150-2400 mg) was “unremarkable”, the maximally tolerated dose (healthy volunteers; single oral doses 150-2400 mg) was “not reached” and the safety and tolerability (healthy volunteers; single oral doses 150-2400 mg) was “well tolerated, with no serious adverse events, and no discontinuations due to adverse events”. For the same compound, the “severity of adverse events” value (healthy volunteers; single oral doses 150-2400 mg) was “mild”, the safety and tolerability (healthy volunteers; single oral doses 150-2400 mg, listed as compound A) was “generally safe and well tolerated” and the “BPRS+ and CADSS scores” value (healthy volunteers; single oral doses 150-2400 mg, vs placebo) was “comparable as between the treatment groups”.

From patent US11723890B2, “Methods of treatment using an mTORC1 modulator” (Navitor Pharmaceuticals, Inc., priority 2019, dated 2023)
